Calls of active or inactive are those of the source. No cut-off for these calls is given here.
Tests used:
[1] = target: Cyclin-dependent kinase 2 (Homo sapiens) (UniProt P24941); test: Inhibition of CDK2 in human HCT-116 cells assessed as reduction in Rb phosphorylation at Ser807/811 incubated for 24 hr s by Western blot analysis; type: cell-based; conditions: dose <= 0.8 µM
[2] = Toxicity in Balb/c-nu nude mouse xenografted with human HCT-116 cells assessed as toxic reactions at 35 to 70 mg/kg/day, po treated for 30 days; type: organism-based; conditions: in vivo, 720 h, dose 35-70 mg/kg/day, time 30 day
[3] = test system: A2780; test: Antiproliferative activity against human A2780 cells assessed as cell growth inhibition incubated for 48 hrs by MTT assay; type: functional, cell-based; conditions: A2780, 48 h
[4] = Apparent volume of distribution in Sprague-Dawley rat at 2 mg/kg, iv measured for 36 hrs by MRM analysis; type: ADME, organism-based; conditions: in vivo, read-out: Vz
[5] = Half life in Sprague-Dawley rat at 2 mg/kg, iv measured for 36 hrs by MRM analysis; type: ADME, organism-based; conditions: in vivo
[6] = target: Cyclin-dependent kinase 2/cyclin A (Homo sapiens, UniProt P24941); test: Inhibition of CDK2/cyclin A (unknown origin) using […] incubated for 40 mins in presence of ATP by Kinase-Glo assay; type: protein-complex assay
[7] = test system: HCT-116; test: Induction of apoptosis in human HCT-116 cells assessed as total apoptotic cells at 0.8 uM incubated for 24 hrs by PI staining based flow cytometry (reference value: 1.30 %); type: functional
[8] = Tmax in Sprague-Dawley rat at 10 mg/kg, po measured for 36 hrs by MRM analysis; type: ADME, organism-based; conditions: in vivo
[9] = Toxicity in Balb/c-nu nude mouse xenografted with human HCT-116 cells assessed as toxicity in heart at 35 to 70 mg/kg/day, po treated for 30 days by H and E staining based analysis; type: organism-based; conditions: in vivo, 720 h, dose 35-70 mg/kg/day, time 30 day
[10] = test system: HeLa; test: Induction of apoptosis in human HeLa cells assessed as necrotic cells at 1.8 uM incubated for 24 hrs by PI staining based flow cytometry (reference value: 25.5 %); type: functional
[11] = Half life in Sprague-Dawley rat at 10 mg/kg, po measured for 36 hrs by MRM analysis; type: ADME, organism-based; conditions: in vivo
[12] = Toxicity in Balb/c-nu nude mouse xenografted with human HCT-116 cells assessed as toxicity in kidney at 35 to 70 mg/kg/day, po treated for 30 days by H and E staining based analysis; type: organism-based; conditions: in vivo, 720 h, dose 35-70 mg/kg/day, time 30 day
[13] = test system: HeLa; test: Induction of apoptosis in human HeLa cells assessed as increase in p53 level upto 3.6 uM incubated for 24 hrs by Western blot analysis; type: functional, cell-based
[14] = Toxicity in Balb/c-nu nude mouse xenografted with human HCT-116 cells assessed as body weight loss at 35 to 70 mg/kg/day, po treated for 30 days; type: organism-based; conditions: in vivo, 720 h, dose 35-70 mg/kg/day, time 30 day
[15] = test system: HCT-116; test: Induction of cell cycle arrest in human HCT-116 cells assessed as accumulation at sub-G1 phase at 0.8 uM incubated for 24 hrs by PI staining based flow cytometry (reference value: 2.45 +/- 0.49 %); type: functional
[16] = test system: HCT-116; test: Induction of cell cycle arrest in human HCT-116 cells assessed as accumulation at G2/M phase at 0.4 uM incubated for 24 hrs by PI staining based flow cytometry (reference value: 20.6 +/- 3.38 %); type: functional
[17] = test system: HCT-116; test: Induction of apoptosis in human HCT-116 cells assessed as viable cells at 0.8 uM incubated for 24 hrs by PI staining based flow cytometry (reference value: 79.4 %); type: functional; conditions: read-out: Activity
[18] = test system: HeLa; test: Induction of cell cycle arrest at G2/M phase in human HeLa cells assessed as decrease in cyclin B1 level incubated for 48 hrs by Western blot analysis; type: functional, cell-based; conditions: dose <= 3.6 µM
[19] = test system: HCT-116; test: Induction of cell cycle arrest in human HCT-116 cells assessed as accumulation at G2/M phase at 0.2 uM incubated for 24 hrs by PI staining based flow cytometry (reference value: 20.6 +/- 3.38 %); type: functional
[20] = Toxicity in Sprague-Dawley rat allografted with rat C6 cells assessed as obvious signs of toxicity at 70 mg/kg/day, po treated for 2 weeks; type: organism-based; conditions: in vivo, 336 h
[21] = test system: HeLa; test: Effect on Bax level in human HeLa cells upto 3.6 uM incubated for 24 hrs by Western blot analysis; type: functional, cell-based
[22] = test system: MDA-MB-231; test: Antiproliferative activity against human MDA-MB-231 cells assessed as cell growth inhibition incubated for 48 hrs by MTT assay; type: functional, cell-based; conditions: MDA-MB-231, 48 h
[23] = test system: HeLa; test: Induction of apoptosis in human HeLa cells assessed as viable cells at 0.9 uM incubated for 24 hrs by PI staining based flow cytometry (reference value: 68.9 %); type: functional; conditions: read-out: Activity
[24] = AUC (0 to t) in Sprague-Dawley rat at 10 mg/kg, po measured for 36 hrs by MRM analysis; type: ADME, organism-based; conditions: in vivo
[25] = test system: HeLa; test: Induction of apoptosis in human HeLa cells assessed as late apoptotic cells at 3.6 uM incubated for 24 hrs by PI staining based flow cytometry (reference value: 3.85 %); type: functional
[26] = test system: U-87 MG; test: Antiproliferative activity against human U-87 MG cells assessed as cell growth inhibition incubated for 48 hrs by MTT assay; type: functional, cell-based, U-87MG ATCC
[27] = test system: HeLa; test: Induction of cell cycle arrest at G2/M phase in human HeLa cells assessed as decrease in p-Cdc2 level incubated for 48 hrs by Western blot analysis; type: functional, cell-based; conditions: dose <= 3.6 µM
[28] = Clearance in Sprague-Dawley rat at 2 mg/kg, iv measured for 36 hrs by MRM analysis; type: ADME, organism-based; conditions: in vivo
[29] = Tmax in Sprague-Dawley rat at 2 mg/kg, iv measured for 36 hrs by MRM analysis; type: ADME, organism-based; conditions: in vivo
[30] = test system: HCT-116; test: Induction of cell cycle arrest in human HCT-116 cells assessed as accumulation at G2/M phase at 0.8 uM incubated for 24 hrs by PI staining based flow cytometry (reference value: 20.6 +/- 3.38 %); type: functional
[31] = test system: HCT-116; test: Induction of apoptosis in human HCT-116 cells assessed as viable cells at 0.4 uM incubated for 24 hrs by PI staining based flow cytometry (reference value: 79.4 %); type: functional; conditions: read-out: Activity
[32] = test system: HCT-116; test: Induction of apoptosis in human HCT-116 cells assessed as late apoptotic cells at 0.4 uM incubated for 24 hrs by PI staining based flow cytometry (reference value: 1.11 %); type: functional
[33] = test system: HeLa; test: Induction of cell cycle arrest in human HeLa cells assessed as accumulation at S phase at 3.6 uM incubated for 24 hrs by PI staining based flow cytometry (reference value: 17.84 +/- 1.89 %); type: functional
[34] = test system: HCT-116; test: Induction of cell cycle arrest in human HCT-116 cells assessed as accumulation at G1/G0 phase at 0.8 uM incubated for 24 hrs by PI staining based flow cytometry (reference value: 58.29 +/- 2.01 %); type: functional
[35] = test system: HCT-116; test: Induction of cell cycle arrest in human HCT-116 cells assessed as accumulation at S phase at 0.2 uM incubated for 24 hrs by PI staining based flow cytometry (reference value: 20.82 +/- 1.24 %); type: functional
[36] = test system: HCT-116; test: Induction of apoptosis in human HCT-116 cells assessed as late apoptotic cells at 0.2 uM incubated for 24 hrs by PI staining based flow cytometry (reference value: 1.11 %); type: functional

With `Cc1cnc(Nc2ccc(S(N)(=O)=O)cc2)nc1Nc1nccs1` the inhibition [1] was “Dose-dependent-effect”, the Activity [2] was “Non-toxic” and the IC50 [3] was 22.2 µM. For the same compound, the Vd [4] was 275 L/kg, the half-life [5] was 4.5 h and the IC50 [6] was 0.004 µM. The Activity [7] was 43.2%, the Tmax [8] was 0.5 h and the Activity [9] was “Non-toxic”. For the same compound, the Activity [10] was 0.22%, the half-life [11] was 4 h and the Activity [12] was “Non-toxic”. For the same compound, the Activity [13] was “Active”, the Activity [14] was “Non-toxic” and the Activity [15] was 1.71%. The Activity [16] was 33.27%, the viability at 0.8 µM [17] was 52.8% and the Activity [18] was “Dose-dependent-effect”. For the same compound, the Activity [19] was 24.4%, the Activity [20] was “Non-toxic” and the Activity [21] was “No effect”. The IC50 [22] was 0.928 µM, the viability at 0.9 µM [23] was 29.1% and the AUC(0-t) at 36 h [24] was 0.143 µg·h/mL. For the same compound, the Activity [25] was 27.3%, the IC50 [26] was 1.01 µM and the Activity [27] was “Dose-dependent-effect”. For the same compound, the CL [28] was 67.9 L/h/kg, the Tmax [29] was 0.2 h and the Activity [30] was 37.16%. The viability at 0.4 µM [31] was 54.4%, the Activity [32] was 22.9% and the Activity [33] was 17.55%. For the same compound, the Activity [34] was 43.88%, the Activity [35] was 22.83% and the Activity [36] was 31.2%.

Source: ChEMBL document CHEMBL6096697, “Structure-Guided Discovery of Novel N4-(Substituted Thiazol-2-yl)-N2-(4-Substituted phenyl)pyrimidine-2,4-Diamines as Potent CDK2 and CDK9 Dual Inhibitors with High Oral Bioavailability” (J Med Chem, 2025)
